ChEMBL document CHEMBL3046503, “Insulinotropic activity of chromonyl-2,4-thiazolidinediones” (2009)

Key:
Assay type in all cases: functional
INS1 [1] = experiment: Insulinotropic activity in Rattus norvegicus (rat) INS-1 cells assessed as increase of glucose-induced insulin release at 0.01 mg/ml after 90 min by radioimmunoassay relative to 5.6 mM of glucose
INS1 [2] = experiment: Insulinotropic activity in Rattus norvegicus (rat) INS-1 cells assessed as increase of glucose-induced insulin release at 0.001 mg/ml after 90 min by radioimmunoassay relative to 5.6 mM of glucose
INS1 [3] = experiment: Insulinotropic activity in Rattus norvegicus (rat) INS-1 cells assessed as increase of glucose-induced insulin release at 3 mM after 90 min by radioimmunoassay relative to 5.6 mM of glucose

| Compound | Activity (INS1 [1]) | Activity (INS1 [2]) | Activity (INS1 [3]) |
| --- | --- | --- | --- |
| Cc1ccc2occ(/C=C3/SC(=O)N(CC(=O)O)C3=O)c(=O)c2c1 | 120.7% | 102.2% | – |
| OC[C@H]1OC(O)[C@H](O)[C@@H](O)[C@@H]1O (some centres not stated) [DEXTROSE] | – | – | 73% |
| CC(C)c1ccc2occ(/C=C3/SC(=O)NC3=O)c(=O)c2c1 | 81.55% | 89.46% | – |
| Cc1ccc2occ(/C=C3/SC(=O)NC3=O)c(=O)c2c1 | 75.61% | 90.53% | – |
| CCOC(=O)CN1C(=O)S/C(=C/c2coc3c(C)cc(C)cc3c2=O)C1=O | 154.4% | 138% | – |
| CCOC(=O)CN1C(=O)S/C(=C/c2coc3ccc(C)cc3c2=O)C1=O | 177.7% | 153.1% | – |
| CCOC(=O)CN1C(=O)S/C(=C/c2coc3ccc(C(C)C)cc3c2=O)C1=O | 180.5% | 138.5% | – |
| O=C1NC(=O)/C(=C\c2coc3ccccc3c2=O)S1 | 63.57% | 83.98% | – |
| Cc1cc(C)c2occ(/C=C3/SC(=O)NC3=O)c(=O)c2c1 | 84.64% | 85.89% | – |
| Cc1cc(C)c2occ(/C=C3/SC(=O)N(CC(=O)O)C3=O)c(=O)c2c1 | 131.6% | 102.8% | – |
| COc1ccc(Cl)cc1C(=O)NCCc1ccc(S(=O)(=O)NC(=O)NC2CCCCC2)cc1 [GLYBURIDE] | – | 179.6% | – |
| O=C1NC(=O)/C(=C\c2coc3ccc([N+](=O)[O-])cc3c2=O)S1 | 69.2% | 81.44% | – |
| O=C(O)CN1C(=O)S/C(=C/c2coc3ccc([N+](=O)[O-])cc3c2=O)C1=O | 111% | 107.8% | – |
| CC(C)c1ccc2occ(/C=C3/SC(=O)N(CC(=O)O)C3=O)c(=O)c2c1 | 144.3% | 125.6% | – |
| CCOC(=O)CN1C(=O)S/C(=C/c2coc3ccc([N+](=O)[O-])cc3c2=O)C1=O | 74.1% | 98.8% | – |
| O=C(O)CN1C(=O)S/C(=C/c2coc3ccccc3c2=O)C1=O | 121% | 117.2% | – |
| CCOC(=O)CN1C(=O)S/C(=C/c2coc3ccccc3c2=O)C1=O | 65.53% | 83.15% | – |
